The source of these data is patent publication US9370764B2, “Compositions and particles containing cellulosic fibers and stabilized-and/or activated-urease inhibitors, as well as methods of making and using the same” (INTERNATIONAL PAPER COMPANY, priority 2007, dated 2016).

Each structure is given as a SMILES string.

The series can be described thus: On-shelf aging of PPDA treated pulp at room conditions. The class given is physicochemical. Particulars: pulp treated with 400 ppm PPDA. As to the method:
Bleached softwood pulps that were treated with 400 ppm PPDA was stored on shelf as dry pulp in ambient conditions for 18 weeks and 20 weeks. The aged pulp samples were then fluffed and tested for ammonia generation by bacteria as in Example 1.
Aging test was also conducted on-shelf in the bag at room conditions. The result was shown in Table 12, and plotted in FIG. 5 in log scale.

On to `NP(N)(=O)Oc1ccccc1` [PPDA, phenylphosphorodiamidate], for which the “PPDA remaining on the pulp (HPLC)” value by setting is: (stored on shelf as dry pulp in ambient conditions for 18 weeks) “trace amount”; (stored on shelf as dry pulp in ambient conditions for 20 weeks) “no PPDA remaining”.
